US12281225B2, “Process for preparing stable polymers containing vinylimidazole” (BASF SE, priority 2018, dated 2025)

Experiments:
[1] = Physical stability; visual assessment (color, turbidity, phase separation); format: physicochemical; parameters: key: ++: no discernible change with respect to color, turbidity or phase separation; +: marginal change in color number, somewhat increased Tyndall effect but no turbidity; 0: easily discernible increase in color number and moderate turbidity−no phase separation; −: turbidity and change in color number readily discernible by visual assessment; −−: strong color change with strong turbidity and incipient phase separation
Summary of the method: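 Samples were inspected visually for color, turbidity and phase separation and scored on a five-step scale. Scores run from ++ (no discernible change) to −− (strong color change, strong turbidity, incipient phase separation).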

[2] = tested on: Bacteria: Escherichia coli, Staphylococcus aureus, Pseudomonas aeruginosa, Pseudomonas putida, Burkholderia cepacia, Alcaligenes faecalis; test: Preservation test with periodic inoculation, bacteria assessment; format: cell-based; settings: sample stored 60 d at 40° C.
Protocol: Microbiological results at the start (freshly formulated, i.e. 4-week test series is started immediately) and after 60 days of storage at 40° C. (i.e. the 4-week microbial testing is started with the sample stored at 40° C. for 60 days)
The test described below is carried out in order to ascertain the preserving effect of chemical preservatives in aqueous products and systems, the principle of the described method reflecting the efficacy of chemical preservatives with respect to pot-maintenance of aqueous products/systems under conditions corresponding to the use of laundry products/consumer products by the consumer. For this purpose, the preservatives to be tested are added in those concentrations which correspond to from the literature or to the manufacturer data from the suppliers (e.g. Thor, Speyer). In said test, our orientation was toward the upper range, which, with the exception of VI-containing polymers, had always led to excellent results in the case of aqueous polymers for laundry.
A constant microorganism load is achieved by periodic inoculation of the test batches. Before the swabs of each batch made respectively immediately in parallel with the inoculation. The assessment is made on the basis of the microbial growth of the streaks.
When carrying out said tests, 25 g of the polymer to be tested are weighed in each case into a vessel with a screw cap. The preservatives to be tested are each added in separate batches according to the specified use concentrations. An unpreserved product sample was used in each case for the growth control. Two days after the addition of the preservative, the samples are infected with 0.5 ml of inoculum (2% w/w). The titer of this inoculant solution is 10^9 organisms per ml. The following microorganisms are the test organisms for the preservation test:
• Escherichia coli • Staphylococcus aureus • Pseudomonas aeruginosa • Pseudomonas putida • Burkholderia cepacia • Alcaligenes faecalis Yeast: • Candida albicans • Candida valida • Rhodotorula rura • Saccharomyces cerevisiae
The test batches are inoculated four times altogether and once a week and are streaked on an agar plate once a week; the first streaking is done immediately before the new inoculation. Microbial growth on the agar surface is assessed after a three-day incubation at 25° C. As a precaution, negative swabs are additionally observed for a further three days and reassessed. The preserving effect is effected in a semiquantitative method via the growth of the individual streaks in accordance with the assessment from − via + to +++. The preservative result is repeatedly demonstrably robust, i.e. +++− defines the microbial growth.
When assessing the results, it is assumed that a preservative can be regarded as good if there are batches under the above-described laboratory conditions for a period of four weeks without microbial invasion of the sample, and that, even after the fourth inoculation, no microbial attacks occur growth can be identified. • −−: no growth • −: slight growth, max. 100 colonies • 0: moderate growth, max. 400 colonies • +: uniform growth with individual colonies still easily identifiable • ++: strong growth; too many colonies to be counted, already some extensive growth

[3] = Iodine color number according to DIN 6162:2014-09; format: physicochemical
[4] = Analysis of active substance: preservative concentration before and after storage in VI-containing polymer solution; format: physicochemical; settings: for active-substance concentration, 0 d, RT: before storage; for active-substance concentration, 14 d, 40° C.: storage 14 d at 40° C.; for active-substance concentration, 28 d, 40° C.: storage 28 d at 40° C.; for active-substance concentration, 60 d 40° C.: storage 60 d at 40° C.
Summary of the method: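 Preservatives (MIT, BIT, CMIT, OIT, DCOIT, iodopropynyl butyl carbamate) in aqueous vinylpyrrolidone–vinylimidazole copolymer solution quantified after dilution by isocratic RP18 chromatography with UV detection, using an acid-methanol eluent.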

[5] = Polymer P5 (HP56) with stabilizer

Cn1sc(Cl)cc1=O [CMIT, 5-chloro-N-methylisothiazolin-3-one]
Physical stability, 60 d 40° C.* ([1]; Polymer P1 with stabilizer): −− | Physical stability, 60 d 40° C.* ([1]; Polymer P2 with stabilizer): −− | Physical stability, 60 d 40° C.* ([1]; Polymer P3 with stabilizer): − | Physical stability, 60 d 40° C.* ([1]; Polymer P4 with stabilizer): −− | Physical stability, 60 d 40° C.* [1, 5]: −− | Physical stability, 60 d 40° C.* ([1]; Polymer P6 with stabilizer): −− | Physical stability, 60 d 40° C.* ([1]; Polymer P7 with stabilizer): − | Physical stability, 60 d 40° C.* ([1]; Polymer P8 with stabilizer): −− | Physical stability, 60 d 40° C.* ([1]; Polymer P9 with stabilizer): −− | 60 d 40° C., bact. assess., 4th inoculation ([2]; Polymer P1): 0 (moderate growth, max. 400 colonies) | 60 d 40° C., bact. assess., 4th inoculation ([2]; Polymer P2): + | 60 d 40° C., bact. assess., 4th inoculation ([2]; Polymer P3): + | 60 d 40° C., bact. assess., 4th inoculation ([2]; Polymer P4): + | 60 d 40° C., bact. assess., 4th inoculation ([2]; Polymer P5 (HP56)): + | 60 d 40° C., bact. assess., 4th inoculation ([2]; Polymer P6): + | 60 d 40° C., bact. assess., 4th inoculation ([2]; Polymer P7): + | 60 d 40° C., bact. assess., 4th inoculation ([2]; Polymer P8): 0 (moderate growth, max. 400 colonies) | 60 d 40° C., bact. assess., 4th inoculation ([2]; Polymer P9): ++ | Iodine color number, 60 d 40° C. ([3]; Polymer P1 with stabilizer): 6.2 | Iodine color number, start ([3]; Polymer P1 with stabilizer): 2.5 | Iodine color number, 60 d 40° C. ([3]; Polymer P2 with stabilizer): 8.6 | Iodine color number, start ([3]; Polymer P2 with stabilizer): 3.1 | Iodine color number, 60 d 40° C. ([3]; Polymer P3 with stabilizer): 8.5 | Iodine color number, start ([3]; Polymer P3 with stabilizer): 3.2 | Iodine color number, 60 d 40° C. ([3]; Polymer P4 with stabilizer): 8.9 | Iodine color number, start ([3]; Polymer P4 with stabilizer): 3.2 | Iodine color number, 60 d 40° C. [3, 5]: 9.0 | Iodine color number, start [3, 5]: 3.5 | Iodine color number, 60 d 40° C. ([3]; Polymer P6 with stabilizer): 9.1 | Iodine color number, start ([3]; Polymer P6 with stabilizer): 3.5 | Iodine color number, 60 d 40° C. ([3]; Polymer P7 with stabilizer): 9.1 | Iodine color number, start ([3]; Polymer P7 with stabilizer): 3.5 | Iodine color number, 60 d 40° C. ([3]; Polymer P8 with stabilizer): 9.3 | Iodine color number, start ([3]; Polymer P8 with stabilizer): 3.3 | Iodine color number, 60 d 40° C. ([3]; Polymer P9 with stabilizer): 13.9 | Iodine color number, start ([3]; Polymer P9 with stabilizer): 3.9 | active-substance concentration, 0 d, RT ([4]; in Polymer P1): 150 ppm | active-substance concentration, 14 d, 40° C. ([4]; in Polymer P1): 94 ppm | active-substance concentration, 28 d, 40° C. ([4]; in Polymer P1): 81 ppm | active-substance concentration, 60 d 40° C. ([4]; in Polymer P1): 59 ppm | active-substance concentration, 0 d, RT ([4]; in Polymer P2): 150 ppm | active-substance concentration, 14 d, 40° C. ([4]; in Polymer P2): 108 ppm | active-substance concentration, 28 d, 40° C. ([4]; in Polymer P2): 89 ppm | active-substance concentration, 60 d 40° C. ([4]; in Polymer P2): 66 ppm | active-substance concentration, 0 d, RT ([4]; in Polymer P3): 150 ppm | active-substance concentration, 14 d, 40° C. ([4]; in Polymer P3): 117 ppm | active-substance concentration, 28 d, 40° C. ([4]; in Polymer P3): 93 ppm | active-substance concentration, 60 d 40° C. ([4]; in Polymer P3): 77 ppm | active-substance concentration, 0 d, RT ([4]; in Polymer P4): 150 ppm | active-substance concentration, 14 d, 40° C. ([4]; in Polymer P4): 111 ppm | active-substance concentration, 28 d, 40° C. ([4]; in Polymer P4): 89 ppm | active-substance concentration, 60 d 40° C. ([4]; in Polymer P4): 73 ppm | active-substance concentration, 0 d, RT ([4]; in Polymer P5 (HP56)): 150 ppm | active-substance concentration, 14 d, 40° C. ([4]; in Polymer P5 (HP56)): 94 ppm | active-substance concentration, 28 d, 40° C. ([4]; in Polymer P5 (HP56)): 81 ppm | active-substance concentration, 60 d 40° C. ([4]; in Polymer P5 (HP56)): 59 ppm | active-substance concentration, 0 d, RT ([4]; in Polymer P6): 150 ppm | active-substance concentration, 14 d, 40° C. ([4]; in Polymer P6): 91 ppm | active-substance concentration, 28 d, 40° C. ([4]; in Polymer P6): 76 ppm | active-substance concentration, 60 d 40° C. ([4]; in Polymer P6): 55 ppm | active-substance concentration, 0 d, RT ([4]; in Polymer P7): 150 ppm | active-substance concentration, 14 d, 40° C. ([4]; in Polymer P7): 96 ppm | active-substance concentration, 28 d, 40° C. ([4]; in Polymer P7): 80 ppm | active-substance concentration, 60 d 40° C. ([4]; in Polymer P7): 64 ppm | active-substance concentration, 0 d, RT ([4]; in Polymer P8): 150 ppm | active-substance concentration, 14 d, 40° C. ([4]; in Polymer P8): 94 ppm | active-substance concentration, 28 d, 40° C. ([4]; in Polymer P8): 81 ppm | active-substance concentration, 60 d 40° C. ([4]; in Polymer P8): 59 ppm | active-substance concentration, 0 d, RT ([4]; in Polymer P9): 150 ppm | active-substance concentration, 14 d, 40° C. ([4]; in Polymer P9): 82 ppm | active-substance concentration, 28 d, 40° C. ([4]; in Polymer P9): 70 ppm | active-substance concentration, 60 d 40° C. ([4]; in Polymer P9): 51 ppm
